In US8772448B2, “Peptides immunoreactive with autoantibodies from patients suffering from rheumatoid arthritis” (Stichting Voor de Technische Wetenschappen, priority 1996, dated 2014):
Where no end group is shown, it is not given here. [ ]: non-standard residue; d: D form. Cit = NC(=O)NCCC[C@H](N)C(=O)O

What was measured:
Type in all cases: binding, human
[1] = system: autoimmune antibodies in sera from patients suffering from rheumatoid arthritis; experiment: ELISA of coupled peptides with RA sera; details: for immunological reactivity in ELISA: RA sera; for RA sera (%) positive / RA sera: number of positive sera: n = 134 RA sera, positive = OD450 of 0.2 after deduction of blank; for RA sera: number of positive sera: sera diluted 200 times
Protocol: (§1) Detection by Means of ELISA
Via an N-oxysuccinimide surface the peptides were covalently coupled to the wells of 96-well microtitre plates (Costar amide binding plates) in an amount of 1 ? g/well. Coupling took place for 16 hours at 4EC and pH 9.0. The plates were blocked for 1 hour with 2% bovine serum albumin. The sera were diluted 200 times in a diluent (0.3% BSA, 350 mM NaCl, 10 mM Tris-HCl pH 7.6, 1% vol./vol. Triton X-100, 0.5% w./vol. Na-deoxycholate, 0.1% SDS) supplemented with 10% normal rabbit serum, and incubated for one hour at room temperature. After washing the plates (3 times with PBS containing 0.05 by vol. of Tween® 20), 100 ? l of antihuman IgG conjugated with peroxidase (Dako P214), 1000 times diluted in dilution buffer, was added to the wells. After incubation for 1 hour at room temperature, the plates were washed 3 times with PBS/Tween®, and bound antibodies were detected with tetramethyl benzidine as a substrate. After 10 minutes the reaction was stopped by adding 100 ? l of 2 M sulphuric acid per well. Readout occurred at 450 nm. Sera having an OD450 of 0.2, after deduction of the blank for the respective serum (a well without a coupled peptide), were considered to be positive. […]

[2] = system: antibodies in pSS (primary Sjögren's syndrome) sera; experiment: ELISA of coupled peptides with pSS sera; details: n = 50
Protocol: as §1
(§2) Via an N-oxysuccinimide surface the peptides were covalently coupled to the wells of 96-well microtitre plates (Costar amide binding plates) in an amount of 1 ? g/well. Coupling took place for 16 hours at 4EC and pH 9.0. The plates were blocked for 1 hour with 2% bovine serum albumin. The sera were diluted 200 times in a diluent (0.3% BSA, 350 mM NaCl, 10 mM Tris-HCl pH 7.6, 1% vol./vol. Triton X-100, 0.5% w./vol. Na-deoxycholate, 0.1% SDS) supplemented with 10% normal rabbit serum, and incubated for one hour at room temperature. After washing the plates (3 times with PBS containing 0.05 by vol. of Tween® 20), 100 ? l of antihuman IgG conjugated with peroxidase (Dako P214), 1000 times diluted in dilution buffer, was added to the wells. After incubation for 1 hour at room temperature, the plates were washed 3 times with PBS/Tween®, and bound antibodies were detected with tetramethyl benzidine as a substrate. After 10 minutes the reaction was stopped by adding 100 ? l of 2 M sulphuric acid per well. Readout occurred at 450 nm. Sera having an OD450 of 0.2, after deduction of the blank for the respective serum (a well without a coupled peptide), were considered to be positive.

[3] = system: antibodies in PM/DM (polymyositis/dermatomyositis) sera; experiment: ELISA of coupled peptides with PM/DM sera; details: n = 50
Protocol: as §1, §2

[4] = system: antibodies in SLE (systemic lupus erythematosus) sera; experiment: ELISA of coupled peptides with SLE sera; details: n = 50
Protocol: as §1, §2

[5] = system: antibodies in control sera from patients suffering from rheumatic diseases other than RA; experiment: ELISA of coupled peptides with control sera; details: n = 154; rheumatic diseases other than RA
Protocol: as §1, §2
In total, 288 sera from patients suffering from rheumatoid diseases were used, 132 of which were from patients suffering from rheumatoid arthritis.

[6] = system: antibodies in SSC (systemic scleroderma) sera; experiment: ELISA of coupled peptides with SSC sera; details: n = 50
Protocol: as §1, §2

Row | Sequence | immunological reactivity in ELISA [1] | pSS (%) positive [2] [%] | pSS: number of positive sera [2] | PM/DM (%) positive [3] [%] | PM/DM: number of positive sera [3] | SLE: number of positive sera [4] | control sera (%) positive [5] [%] | control sera: number of positive sera [5] | SSC (%) positive [6] [%] | SSC: number of positive sera [6] | RA sera (%) positive [1] [%] | RA sera: number of positive sera [1] | SLE (%) positive [4] [%]
1 | ESSHGWTGPSTRGRQGSRHE [nf, reference compound] | not |  |  |  |  |  |  |  |  |  |  |  | 
2 | SHQESTAGRSRGRSGRSGS [cfA, reference compound] | did not seem to be immunologically reactive |  |  |  |  |  |  |  |  |  |  |  | 
3 | SHQESTEGRSRGRSGRSGS [cfE, reference compound] | did not seem to be immunologically reactive |  |  |  |  |  |  |  |  |  |  |  | 
4 | SHQESTQGRSRGRSGRSGS [cfQ, reference compound] | did not seem to be immunologically reactive |  |  |  |  |  |  |  |  |  |  |  | 
5 | SHQESTRGRSRGRSGRSGS (Derived from known cDNA sequences of human profilaggrin) [cf, reference compound] | did not seem to be immunologically reactive |  |  |  |  |  |  |  |  |  |  |  | 
6 | SHQESTRGRSRGRSGXSGS (SHQESTRGRSRGRSG[Cit]SGS-NH2; N-terminus assumed; SMILES C[C@@H](O)[C@H](NC(=O)[C@H](CO)NC(=O)[C@H](CCC(=O)O)NC(=O)[C@H](CCC(N)=O)NC(=O)[C@H](Cc1c[nH]cn1)NC(=O)[C@@H](N)CO)C(=O)N[C@@H](CCCNC(=N)N)C(=O)NCC(=O)N[C@@H](CCCNC(=N)N)C(=O)N[C@@H](CO)C(=O)N[C@@H](CCCNC(=N)N)C(=O)NCC(=O)N[C@@H](CCCNC(=N)N)C(=O)N[C@@H](CO)C(=O)NCC(=O)N[C@@H](CCCNC(N)=O)C(=O)N[C@@H](CO)C(=O)NCC(=O)N[C@@H](CO)C(N)=O) [cfc5] |  | 4 | 2 | 2 | 1 | 0 | 0.6 | 1 | 2 | 1 | 48 | 64 | 
7 | SHQESTRGRSRGXSGRSGS (SHQESTRGRSRG[Cit]SGRSGS-NH2; N-terminus assumed; SMILES C[C@@H](O)[C@H](NC(=O)[C@H](CO)NC(=O)[C@H](CCC(=O)O)NC(=O)[C@H](CCC(N)=O)NC(=O)[C@H](Cc1c[nH]cn1)NC(=O)[C@@H](N)CO)C(=O)N[C@@H](CCCNC(=N)N)C(=O)NCC(=O)N[C@@H](CCCNC(=N)N)C(=O)N[C@@H](CO)C(=O)N[C@@H](CCCNC(=N)N)C(=O)NCC(=O)N[C@@H](CCCNC(N)=O)C(=O)N[C@@H](CO)C(=O)NCC(=O)N[C@@H](CCCNC(=N)N)C(=O)N[C@@H](CO)C(=O)NCC(=O)N[C@@H](CO)C(N)=O) [cfc4] |  |  | 0 |  | 0 | 0 | 1.3 | 2 |  | 0 | 24 | 32 | 
8 | SHQESTRGRSXGRSGRSGS (SHQESTRGRS[Cit]GRSGRSGS-NH2; N-terminus assumed; SMILES C[C@@H](O)[C@H](NC(=O)[C@H](CO)NC(=O)[C@H](CCC(=O)O)NC(=O)[C@H](CCC(N)=O)NC(=O)[C@H](Cc1c[nH]cn1)NC(=O)[C@@H](N)CO)C(=O)N[C@@H](CCCNC(=N)N)C(=O)NCC(=O)N[C@@H](CCCNC(=N)N)C(=O)N[C@@H](CO)C(=O)N[C@@H](CCCNC(N)=O)C(=O)NCC(=O)N[C@@H](CCCNC(=N)N)C(=O)N[C@@H](CO)C(=O)NCC(=O)N[C@@H](CCCNC(=N)N)C(=O)N[C@@H](CO)C(=O)NCC(=O)N[C@@H](CO)C(N)=O) [cfc3] |  | 2 | 1 | 2 | 1 | 0 | 0.6 | 2 |  | 0 | 28 | 37 | 
9 | SHQESTRGXSRGRSGRSGS (SHQESTRG[Cit]SRGRSGRSGS-NH2; N-terminus assumed; SMILES C[C@@H](O)[C@H](NC(=O)[C@H](CO)NC(=O)[C@H](CCC(=O)O)NC(=O)[C@H](CCC(N)=O)NC(=O)[C@H](Cc1c[nH]cn1)NC(=O)[C@@H](N)CO)C(=O)N[C@@H](CCCNC(=N)N)C(=O)NCC(=O)N[C@@H](CCCNC(N)=O)C(=O)N[C@@H](CO)C(=O)N[C@@H](CCCNC(=N)N)C(=O)NCC(=O)N[C@@H](CCCNC(=N)N)C(=O)N[C@@H](CO)C(=O)NCC(=O)N[C@@H](CCCNC(=N)N)C(=O)N[C@@H](CO)C(=O)NCC(=O)N[C@@H](CO)C(N)=O) [cfc2] |  | 2 | 1 | 2 | 1 | 1 | 2.6 | 4 |  | 0 | 20 | 27 | 2
10 | SHQESTXGRSRGRSGXSGS (SHQEST[Cit]GRSRGRSG[Cit]SGS-NH2; N-terminus assumed; SMILES C[C@@H](O)[C@H](NC(=O)[C@H](CO)NC(=O)[C@H](CCC(=O)O)NC(=O)[C@H](CCC(N)=O)NC(=O)[C@H](Cc1c[nH]cn1)NC(=O)[C@@H](N)CO)C(=O)N[C@@H](CCCNC(N)=O)C(=O)NCC(=O)N[C@@H](CCCNC(=N)N)C(=O)N[C@@H](CO)C(=O)N[C@@H](CCCNC(=N)N)C(=O)NCC(=O)N[C@@H](CCCNC(=N)N)C(=O)N[C@@H](CO)C(=O)NCC(=O)N[C@@H](CCCNC(N)=O)C(=O)N[C@@H](CO)C(=O)NCC(=O)N[C@@H](CO)C(N)=O) [cfc9] |  | 4 | 2 |  | 0 | 0 | 0.6 | 1 |  | 0 | 42 | 57 | 
11 | SHQESTXGRSRGXSGRSGS (SHQEST[Cit]GRSRG[Cit]SGRSGS-NH2; N-terminus assumed; SMILES C[C@@H](O)[C@H](NC(=O)[C@H](CO)NC(=O)[C@H](CCC(=O)O)NC(=O)[C@H](CCC(N)=O)NC(=O)[C@H](Cc1c[nH]cn1)NC(=O)[C@@H](N)CO)C(=O)N[C@@H](CCCNC(N)=O)C(=O)NCC(=O)N[C@@H](CCCNC(=N)N)C(=O)N[C@@H](CO)C(=O)N[C@@H](CCCNC(=N)N)C(=O)NCC(=O)N[C@@H](CCCNC(N)=O)C(=O)N[C@@H](CO)C(=O)NCC(=O)N[C@@H](CCCNC(=N)N)C(=O)N[C@@H](CO)C(=O)NCC(=O)N[C@@H](CO)C(N)=O) [cfc8] |  | 2 | 1 | 2 | 1 | 0 | 0.6 | 1 |  | 0 | 41 | 55 | 
12 | TGPSTRGRQGSXHE (TGPSTRGRQGS[Cit]HE-NH2; N-terminus assumed; SMILES C[C@@H](O)[C@H](N)C(=O)NCC(=O)N1CCC[C@H]1C(=O)N[C@@H](CO)C(=O)N[C@H](C(=O)N[C@@H](CCCNC(=N)N)C(=O)NCC(=O)N[C@@H](CCCNC(=N)N)C(=O)N[C@@H](CCC(N)=O)C(=O)NCC(=O)N[C@@H](CO)C(=O)N[C@@H](CCCNC(N)=O)C(=O)N[C@@H](Cc1c[nH]cn1)C(=O)N[C@@H](CCC(=O)O)C(N)=O)[C@@H](C)O) [nfc1] |  |  |  |  |  |  |  |  |  |  | 10 |  | 
